Experimental data from EP4725941A1, “ARYLAMIDE DERIVATIVE HAVING ANTITUMOR ACTIVITY” (priority 2020, dated 2021).
Like-named read-outs stand apart in the source and are kept apart here.

Assays:
[1] = molecular target: T1, MEK1 (Homo sapiens, UniProt Q02750); assay: MEK1-inhibiting activity, fluorescent polarization method (CRAF/MEK1/ERK2 cascade, IMAP); type: biochemical; details: Table 3; read-out: MEK1 IC50
T1 construct: purchased Thermo Fisher Scientific Inc. (MEK1, CRAF); Carna Biosciences, Inc. (ERK2)
Protocol: The MEK1-inhibiting activity of the compounds listed in Table 3 below were evaluated by the fluorescent polarization method as described below.

[2] = molecular target: T2, BRAF (Homo sapiens, UniProt P15056); assay: BRAF-inhibiting activity, time-resolved fluorescence-fluorescence resonance energy transfer assay; type: biochemical
T2 construct: purchased Eurofins Genomics KK; (BRAF); Thermo Fisher Scientific Inc. (MEK1)
Protocol: The BRAF-inhibiting activity of the compounds listed in Table 3 below was evaluated by the time-resolved fluorescence-fluorescence resonance energy transfer assay as described below.

[3] = tested on: A549; assay: Cell proliferation-inhibiting activity (ATP in viable cells, CellTiter-Glo), A549; type: cell-based, human; details: A549, 96 h, read-out: A549 IC50
[4] = tested on: Calu-6; assay: Cell proliferation-inhibiting activity (ATP in viable cells, CellTiter-Glo), Calu-6; type: cell-based, human; details: Calu-6, 96 h, read-out: Calu-6 IC50
[5] = tested on: NCI-H2122; assay: Cell proliferation-inhibiting activity (ATP in viable cells, CellTiter-Glo), NCI-H2122; type: cell-based, human; details: NCI-H2122, 96 h, read-out: NCI-H2122 IC50
[6] = Human liver microsome stability; type: in vitro ADME; details: human liver microsomes, pH 7.4
[7] = human lung cancer cells, 4 days

T2 sequence (P15056 417-766 limits assumed): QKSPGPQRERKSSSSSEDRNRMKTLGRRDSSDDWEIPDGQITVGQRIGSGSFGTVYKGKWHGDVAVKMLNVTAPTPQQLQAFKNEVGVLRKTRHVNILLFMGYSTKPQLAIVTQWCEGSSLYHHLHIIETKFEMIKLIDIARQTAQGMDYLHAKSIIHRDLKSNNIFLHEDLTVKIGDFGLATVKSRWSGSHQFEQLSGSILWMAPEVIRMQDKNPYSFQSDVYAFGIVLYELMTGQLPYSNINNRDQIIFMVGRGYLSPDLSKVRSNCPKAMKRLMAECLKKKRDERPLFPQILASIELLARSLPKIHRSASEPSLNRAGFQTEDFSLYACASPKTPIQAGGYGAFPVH
T1 sequence (Q02750 whole entry): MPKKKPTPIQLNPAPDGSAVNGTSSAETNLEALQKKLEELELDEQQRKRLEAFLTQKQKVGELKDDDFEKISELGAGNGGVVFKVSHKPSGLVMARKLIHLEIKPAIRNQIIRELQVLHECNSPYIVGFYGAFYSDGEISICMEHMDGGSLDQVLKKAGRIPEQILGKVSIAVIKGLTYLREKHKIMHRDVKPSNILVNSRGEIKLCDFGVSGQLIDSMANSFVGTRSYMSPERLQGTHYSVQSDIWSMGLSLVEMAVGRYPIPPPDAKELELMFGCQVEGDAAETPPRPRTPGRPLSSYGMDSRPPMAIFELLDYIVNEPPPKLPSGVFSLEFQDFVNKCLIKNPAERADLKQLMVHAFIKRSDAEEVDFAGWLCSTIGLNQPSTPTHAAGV

Row | Compound | IC50 [1] [nM] | IC50 ([2]; read-out: BRAF IC50; Table 3) [nM] | IC50 [3, 7] [nM] | IC50 [4, 7] [nM] | IC50 [5, 7] [nM] | microsomal CLint at 0.99 µM [6] [µL/min/mg] | IC50 ([2]; Table 3; read-out: BRAF IC50) [nM] | IC50 ([3]; Homo sapiens) [nM] | IC50 ([4]; Homo sapiens) [nM] | IC50 ([5]; Homo sapiens) [nM]
1 | CCS(=O)(=O)Nc1cccc(Cc2cc(C(N)=O)c(Nc3ccc(I)cc3F)c(F)c2F)c1 [Compound F-2, 5-[[3-(Ethylsulfonylamino)phenyl]methyl]-3,4-difluoro-2-(2-fluoro-4-iodoanilino)benzamide] | 383 | 5 | 8 | 66 | 8 | 15 | – | – | – | –
2 | NC(=O)c1cc(Cc2ccnc(NS(=O)(=O)NC3CC3)c2F)c(F)c(F)c1Nc1ccc(I)cc1F [Compound A-30, 5-[[2-(cyclopropylsulfamoylamino)-3-fluoropyridin-4-yl]methyl]-3,4-difluoro-2-(2-fluoro-4-iodoanilino)benzamide] | 9 | 8 | 3 | 8 | 1 | 10 | – | – | – | –
3 | CCS(=O)(=O)Nc1cccc(Cc2cc(C(=O)NOC)c(Nc3ccc(I)cc3F)c(F)c2F)c1F [Compound E-1, 5-[[3-(ethylsulfonylamino)-2-fluorophenyl]methyl]-3,4-difluoro-2-(2-fluoro-4-iodoanilino)-N-methoxybenzamide] | 40 | 12 | 2 | 6 | 0.4 | 17 | – | – | – | –
4 | CC(C)NS(=O)(=O)Nc1nccc(Cc2cc(C(N)=O)c(Nc3ccc(I)cc3F)c(F)c2F)c1F [Compound A-31, 3,4-difluoro-2-(2-fluoro-4-iodoanilino)-5-[[3-fluoro-2-(propan-2-ylsulfamoylamino)pyridin-4-yl]methyl]benzamide] | 49 | 6 | 20 | 31 | 7 | 9 | – | – | – | –
5 | CC(C)(C)ONC(=O)c1cc(Cc2cccc(NS(=O)(=O)C3(C)CC3)c2F)c(F)c(F)c1Nc1ccc(I)cc1F [Compound E-6, 3,4-Difluoro-2-(2-fluoro-4-iodoanilino)-5-[[2-fluoro-3-[(1-methylcyclopropyl)sulfonylamino]phenyl]methyl]-N-[(2-methylpropan-2-yl)oxy]be nzamide] | 34 | 17 | 8 | 28 | 6 | 105 | – | – | – | –
6 | CNS(=O)(=O)Nc1cccc(Cc2cc(C(=O)NC3CC3)c(Nc3ccc(I)cc3F)n(C)c2=O)c1F [Compound K-4, N-Cyclopropyl-2-(2-fluoro-4-iodoanilino)-5-[[2-fluoro-3-(methylsulfamoylamino)phenyl]methyl]-1-methyl-6-oxopyridine-3-carboxamide] | 106 | 11 | 6 | 25 | 5 | 129 | – | – | – | –
7 | CNS(=O)(=O)Nc1nccc(Cc2cc(C(=O)NOC(C)(C)C)c(Nc3ccc(I)cc3F)c(F)c2F)c1F [Compound A-8, 3,4-difluoro-2-(2-fluoro-4-iodoanilino)-5-[[3-fluoro-2-(methylsulfamoylamino)pyridin-4-yl]methyl]-N-[(2-methylpropan-2-yl)oxy]benz amide] | 3 | 4 | 0.4 | 2 | 0.1 | 33 | – | – | – | –
8 | NC(=O)c1cc(Cc2cccc(NS(=O)(=O)C3CC3)c2F)c(F)c(F)c1Nc1ccc(I)cc1F [Compound E-22, 5-[[3-(Cyclopropylsulfonylamino)-2-fluorophenyl]methyl]-3,4-difluoro-2-(2-fluoro-4-iodoanilino)benzamide] | 302 | 4 | 6 | 87 | 3 | 18 | – | – | – | –
9 | Cn1c(Nc2ccc(I)cc2F)c(C(=O)NC2CC2)cc(Cc2cccc(NS(=O)(=O)C3(C)CC3)c2F)c1=O [Compound K-11, N-Cyclopropyl-2-(2-fluoro-4-iodoanilino)-5-[[2-fluoro-3-[(1-methylcyclopropyl)sulfonylamino]phenyl]methyl]-I-methyl-6-oxopyridine-3-carb oxamide] | 278 | 15 | 93 | 230 | 85 | 437 | – | – | – | –
10 | CC(C)S(=O)(=O)Nc1cccc(Cc2cc(C(N)=O)c(Nc3ccc(I)cc3F)c(F)c2F)c1F [Compound E-24, 3,4-Difluoro-2-(2-fluoro-4-iodoanilino)-5-[[2-fluoro-3-(propan-2-ylsulfonylamino)phenyl]methyl]benzamide] | 189 | 20 | 26 | 63 | 5 | 10 | – | – | – | –
11 | CNS(=O)(=O)Nc1nccc(Cc2cc(C(N)=O)c(Nc3ccc(SC(F)F)cc3F)c(F)c2F)c1F [Compound H-1, 2-[4-(difluoromethylsulfanyl)-2-fluoroanilino]-3,4-difluoro-5-[[3-fluoro-2-(methylsulfamoylamino)pyridin-4-yl]methyl]benzamide] | 7 | – | – | – | – | 39 | 2 | 9 | 21 | 5
12 | CNS(=O)(=O)Nc1nccc(Cc2cc(C(N)=O)c(Nc3ccc(C4CC4)cc3F)c(F)c2F)c1F [Compound A-1, 2-(4-cyclopropyl-2-fluoroanilino)-3,4-difluoro-5-[[3-fluoro-2-(methylsulfamoylamino)pyridin-4-yl]methyl]benzamide] | 17 | – | – | – | – | 1 | 1 | 26 | 64 | 5
13 | CNS(=O)(=O)Nc1nccc(Cc2cc(C(N)=O)c(Nc3ccc(I)cc3F)c(F)c2F)c1F [Compound A-25, 3,4-difluoro-2-(2-fluoro-4-iodoanilino)-5-[[3-fluoro-2-(methylsulfamoylamino)pyridin-4-yl]methyl]benzamide] | 5 | 2 | 0.5 | 2 | 0.2 | 7 | – | – | – | –
14 | Cn1c(Nc2ccc(I)cc2F)c(C(=O)NC2CC2)cc(Cc2ccnc(NS(=O)(=O)NC3CC3)c2F)c1=O [Compound J-6, N-Cyclopropyl-5-[[2-(cyclopropylsulfamoylamino)-3-fluoropyridin-4-yl]methyl]-2-(2-fluoro-4-iodoanilino)-1-methyl-6-oxopyridine-3-carboxamide] | 86 | 7 | 14 | 27 | 7 | 45 | – | – | – | –
15 | COCCNS(=O)(=O)Nc1nccc(Cc2cc(C(=O)NOC)c(Nc3ccc(I)cc3F)c(F)c2F)c1F [Compound A-14, 3,4-Difluoro-2-(2-fluoro-4-iodoanilino)-5-[[3-fluoro-2-(2-methoxyethylsulfamoylamino)pyridin-4-yl]methyl]-N-methoxybenzamide] | 2 | 3 | 11 | 27 | 1 | 39 | – | – | – | –
16 | CCCNS(=O)(=O)Nc1nccc(Cc2cc(C(N)=O)c(Nc3ccc(I)cc3F)c(F)c2F)c1F [Compound A-41, 3,4-difluoro-2-(2-fluoro-4-iodoanilino)-5-[[3-fluoro-2-(propylsulfamoylamino)pyridin-4-yl]methyl]benzamide] | 29 | 7 | 12 | 8 | 2 | 5 | – | – | – | –
17 | CNS(=O)(=O)Nc1nccc(Cc2cc(C(=O)NOC(C)(C)C)c(Nc3ccc(I)cc3F)n(C)c2=O)c1F [Compound J-10, 2-(2-fluoro-4-iodoanilino)-5-[[3-fluoro-2-(methylsulfamoylamino)pyridin-4-yl]methyl]-1-methyl-N-[(2-methylpropan-2-yl)oxy]-6-oxop yridine-3-carboxamide] | 42 | 10 | 8 | 13 | 2 | 28 | – | – | – | –
18 | NC(=O)c1cc(Cc2ccnc(NS(N)(=O)=O)c2)c(F)c(F)c1Nc1ccc(I)cc1F [Compound C-1, 3,4-Difluoro-2-(2-fluoro-4-iodoanilino)-5-[[2-(sulfamoylamino)pyridin-4-yl]methyl]benzamide] | 72 | 4 | 7 | 16 | 4 | 10 | – | – | – | –
19 | CNS(=O)(=O)Nc1nccc(Cc2cc(C(N)=O)c(Nc3ccc(SC)cc3F)c(F)c2F)c1F [Compound A-18, 3,4-difluoro-5-[[3-fluoro-2-(methylsulfamoylamino)pyridin-4-yl]methyl]-2-(2-fluoro-4-methylsulfanylanilino)benzamide] | 8 | – | – | – | – | 53 | 4 | 5 | 7 | 2
20 | CCS(=O)(=O)Nc1cccc(Cc2cc(C(N)=O)c(Nc3ccc(I)cc3F)n(C)c2=O)c1F [Compound K-10, 5-[[3-(Ethylsulfonylamino)-2-fluorophenyl]methyl]-2-(2-fluoro-4-iodoanilino)-1-methyl-6-oxopyridine-3-carboxamide] | 128 | 8 | 25 | 81 | 16 | 69 | – | – | – | –
